Consider twelve compounds from patent publication US12435060B2, “Acylamino bridged heterocyclic compound, and composition and application thereof” (BEIJING SCITECH-MQ PHARMACEUTICALS LIMITED, priority 2019, dated 2025).

The structures appear in SMILES notation.

A word on the IC50: it is the concentration at which inhibition is half-maximal. Higher therefore signals weaker potency in that assay.

The test relates to HT29 cells. In words: Inhibition of cell necrosis (CCK8 method), induced programmed necrosis of HT29 cells. It counts as cell-based. As to conditions: Homo sapiens, HT-29; rescue from necrosis induced by TNF-α 20 ng/mL, AT-406 1 μM, Z-VAD-FMK 20 μM; 16-20 hours; CCK-8, OD 450 nm. In a few lines:
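Rescue from programmed necrosis was scored by CCK-8 absorbance at 450 nm after 16-20 h of TNF-α (20 ng/mL), AT-406 (1 μM) and Z-VAD-FMK (20 μM) at 37 °C, 5% CO2. HT29 cells had received compound 30 min earlier across nine 4-fold dilutions (top 25000 nM final). IC50 came from % inhibition relative to uninduced and induced-only wells.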
(Tetrazolium dyes change colour on reduction, which living cells bring about.)

`Cc1ccc(C2CCOCC2)cc1-c1ccnc(NC(=O)c2nnc(Cc3ccccc3)[nH]2)c1` [Example 479, 5-benzyl-N-(4-(2-methyl-5-(tetrahydro-2H-pyran-4-yl)phenyl)pyridin-2-yl)-4H-1,2,4-triazole-3-carboxamide]: the IC50 fell in the range of 100 to 1000 nM.

`COC(=O)C=Cc1ccc(C)c(-c2ccnc(NC(=O)c3nnc(Cc4ccccc4)[nH]3)c2)c1` [Example 480, Methyl 3-(3-(2-(5-benzyl-4H-1,2,4-triazol-3-carboxamido)pyridin-4-yl)-4-methylphenyl)acrylate] returned an IC50 not above 100 nM.

In turn, `COC(=O)CCc1ccc(C)c(-c2ccnc(NC(=O)c3nnc(CC4CCCC4)[nH]3)c2)c1` [Example 481, Methyl 3-(3-(2-(5-(cyclopentylmethyl)-4H-1,2,4-triazol-3-carboxamido)pyridin-4-yl)-4-methylphenyl)propionate] had an IC50 of 100 to 1000 nM.

On to `Cc1ccc(CCC(C)(C)O)cc1-c1ccnc(NC(=O)c2nnc(Cc3ccccc3)[nH]2)c1` [Example 482, 5-benzyl-N-(4-(5-(3-hydroxyl-3-methylbutyl)-2-methylphenyl)pyridin-2-yl)-4H-1,2,4-triazole-3-carboxamide], for which the IC50 is not above 100 nM.

For `Cc1ccc(CCCO)cc1-c1ccnc(NC(=O)c2nnc(Cc3ccccc3)[nH]2)c1` [Example 483, 5-benzyl-N-(4-(5-(3-hydroxylpropyl)-2-methylphenyl)pyridin-2-yl)-4H-1,2,4-triazole-3-carboxamide], the IC50 lay in the range of 100 to 1000 nM.

In the case of `COCCCC(O)c1ccc(C)c(-c2ccnc(NC(=O)c3nnc(Cc4ccccc4)[nH]3)c2)c1` (stereo not drawn) [Example 484, 5-benzyl-N-(4-(5-(1-hydroxyl-4-methoxybutyl)-2-methylphenyl)pyridin-2-yl)-4H-1,2,4-triazole-3-carboxamide], the IC50 is not above 100 nM.

For the compound `Cc1ccc(C(=O)CC2CCOCC2)cc1-c1ccnc(NC(=O)c2nnc(Cc3ccccc3)[nH]2)c1` [Example 485, 5-benzyl-N-(4-(2-methyl-5-(2-(tetrahydro-2H-pyran-4-yl)acetyl)phenyl)pyridin-2-yl)-4H-1,2,4-triazole-3-carboxamide], the IC50 lay in the range of 100 to 1000 nM.

`Cc1ccc(C(=O)CC2CCOCC2)cc1-c1ccnc(NC(=O)c2nnc(CC3CCCC3)[nH]2)c1` [Example 486, 5-(cyclopentylmethyl)-N-(4-(2-methyl-5-(2-(tetrahydro-2H-pyran-4-yl)acetyl)phenyl)pyridin-2-yl)-4H-1,2,4-triazole-3-carboxamide]: the IC50 was not above 100 nM.

The compound `Cc1ccc(C(=O)NCCC(C)(C)O)cc1-c1ccnc(NC(=O)c2nnc(Cc3ccccc3)[nH]2)c1` [Example 487, 5-benzyl-N-(4-(5-((3-hydroxyl-3-methylbutyl)carbamoyl)-2-methylphenyl)pyridin-2-yl)-4H-1,2,4-triazole-3-carboxamide] registered an IC50 of 100 to 1000 nM.

For `Cc1ccc(C(=O)NCCC(C)(C)O)cc1-c1ccnc(NC(=O)c2nnc(CC3CCCC3)[nH]2)c1` [Example 488, 5-(cyclopentylmethyl)-N-(4-(5-((3-hydroxyl-3-methylbutyl)carbamoyl)-2-methylphenyl)pyridin-2-yl)-4H-1,2,4-triazole-3-carboxamide], the IC50 is not above 100 nM.

In the case of `Cc1ccc(NC(=O)CCC(C)(C)O)cc1-c1ccnc(NC(=O)c2nnc(Cc3ccccc3)[nH]2)c1` [Example 489, 5-benzyl-N-(4-(5-(4-hydroxy-4-methylvaleramido)-2-methylphenyl)pyridin-2-yl)-4H-1,2,4-triazole-3-carboxamide], the IC50 was in the range of 100 to 1000 nM.

`Cc1ccc(NC(=O)CCC(C)(C)O)cc1-c1ccnc(NC(=O)c2nnc(CC3CCCC3)[nH]2)c1` [Example 490, 5-(cyclopentylmethyl)-N-(4-(5-(4-hydroxy-4-methylvaleramido)-2-methylphenyl)pyridin-2-yl)-4H-1,2,4-triazole-3-carboxamide]: the IC50 was not above 100 nM.
